From US20250082797A1, “Methods for In Vivo Tracking of Cells” (Wisconsin Alumni Research Foundation, priority 2023, published 2025)

Test system: cell line U937
Assay: Optimization of glycan oxidation conditions, cell viability by trypan blue staining
Assay type: cell-based
Procedure: Method 2: Conditions for biocompatible oxime ligation and ^89Zr-labeling of monocytes. Reactive aldehydes were generated on the cell surface of the monocytic cell line U937 through sialic acid oxidation with NaIO4. Oxidation conditions were optimized by varying NaIO4 concentration (0.1-10 mM), pH (4.6-7.4), temperature (4 or 37° C.), and incubation time (15 min to 2 h). Subsequently, cells were incubated with AOD (100-500 μM) at room temperature for up to 1 h in the presence of aniline, and cells were washed and resuspended in PBS. Next, AOD-conjugated (5-7×10^6) cells were radiolabeled with ^89Zr (37-74 MBq) at room temperature for 1h, then washed thrice to eliminate unlabeled ^89Zr, and the radiochemical yield was measured by TLC (FIG. 9A-9D). Cell viability was assessed at each step via trypan blue staining (FIG. 8).

## [Na+].[O-][I+3]([O-])([O-])[O-] [sodium periodate]
1 mM, up to 1 hour
  viability of U937 cells after oxidation: over 90%
Tested temperature and reaction times
  effect of glycan oxidation on cell viability, in words: minimal effect on cell viability
